11 molecules from ChEMBL document CHEMBL1201862, “PubChem BioAssay data set” (2004) can be followed below.

“And” between values parts separate entries of the source, which are not always exact repeats. Equal entries are not always repeated.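 The compound was tested at five concentrations on cells cultured in 96-well plates, with a 48-hour exposure period. GI50 is the concentration that inhibits growth by half.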 The source made the active and inactive calls. No stated cut-off is given here; in the data, active = GI50 up to about 1.1 µM and inactive = higher.

Some test systems named below: SF-295; HCT-15; EKVX; SR; SF-539; A549; SK-MEL-28; KM12; OVCAR-4; NCI-H460; SK-MEL-2; A498; IGROV-1; UACC-257; RPMI-8226; HCC 2998; SNB-78; KM-20L2; M19-MEL; LXFL 529.
Common to all, as to experiment: NCI anticancer screen, dose series, 48 h

Consider `CC(NC(=O)C(NC(=O)CNC(=O)OC(C)(C)C)C(C)C)C(=O)Oc1c(Cl)c(Cl)c(Cl)c(Cl)c1Cl` (centres undefined), for which the GI50 was 14.5 µM (inactive) in the assay on SF-295; 17.5 µM in the assay on HCT-15; 27.4 µM (inactive) in the assay on EKVX; 71 µM (inactive) in the assay on SR; 17.5 µM (inactive) in the assay with SF-539; 22.4 µM (inactive) with A549. In addition, the GI50 was 26.6 µM (inactive) in the assay with SK-MEL-28; 15.1 µM (inactive) in the assay with KM12; 18.8 µM (inactive) in the assay on OVCAR-4; 18.6 µM (inactive) in the assay with NCI-H460; 14.3 µM (inactive) in the assay with SK-MEL-2; 21.8 µM (inactive) in the assay with A498. In addition, the GI50 with IGROV-1 is 20.3 µM (inactive); in the assay on UACC-257, 15.9 µM (inactive); with RPMI-8226, 45.2 µM (inactive); in the assay on HCC 2998, 19.6 µM (inactive).
As for `CC1(CO)C(O)CCC2(C)C1C(O)CC1CC3CC12CCC3(O)CO` (centres undefined), the GI50 in the assay with SNB-78 is > 225 µM (inactive); with SF-295, 91.2 µM (inactive); with HCT-15 it was above 225 µM; in the assay with EKVX, > 205 µM (inactive); in the assay on SF-539, > 225 µM (inactive); in the assay with A549, > 225 µM (inactive). Moreover, the GI50 with SK-MEL-28 is > 225 µM (inactive); with KM12, > 225 µM (inactive); with KM-20L2, > 225 µM (inactive); in the assay on OVCAR-4, > 225 µM (inactive); in the assay on M19-MEL, > 153 µM (inactive); with NCI-H460, 77.1 µM (inactive). In addition, the GI50 was > 225 µM (inactive) with SK-MEL-2; > 225 µM (inactive) in the assay with A498; > 225 µM (inactive) in the assay on IGROV-1; > 225 µM (inactive) in the assay on UACC-257; > 158 µM (inactive) with RPMI-8226; > 225 µM (inactive) in the assay with HCC 2998.
With `Cc1cc(OCC(O)CO)ccc1Cl` (centres undefined), the GI50 in the assay with SF-295 is > 100 µM (inactive); in the assay with HCT-15 it was above 100 µM; in the assay with EKVX, > 100 µM (inactive); with SR, 60.1 µM (inactive); in the assay on SF-539, > 100 µM (inactive); with A549, > 100 µM (inactive). Also, the GI50 in the assay with SK-MEL-28, in the assay with KM12, in the assay on LXFL 529, in the assay with KM-20L2, with OVCAR-4 and in the assay on M19-MEL was > 100 µM (inactive) in each case. The GI50 in the assay with NCI-H460, in the assay on SK-MEL-2, in the assay on A498, with IGROV-1, in the assay with UACC-257 and in the assay on RPMI-8226 was > 100 µM (inactive) throughout. In the assay on HCC 2998, the GI50 is > 100 µM (inactive).
For `N#CCCN(CCC#N)c1ccc(/C=C2\N=C(c3cc([N+](=O)[O-])ccc3Cl)N(NC(=O)CC(=O)Nc3ccccc3Cl)C2=O)cc1`, the GI50 was > 100 µM (inactive) in the assay with SNB-78; > 100 µM (inactive) in the assay with SF-295; above 100 µM with HCT-15; > 100 µM (inactive) in the assay with EKVX; > 100 µM (inactive) in the assay on SR; > 100 µM (inactive) in the assay on SF-539. Also, the GI50 in the assay with A549 is > 100 µM (inactive); in the assay on SK-MEL-28 it was > 100 µM (inactive); with KM12 it was > 100 µM (inactive); in the assay on LXFL 529, > 100 µM (inactive); with KM-20L2 it was 16.3 µM (inactive); in the assay on OVCAR-4 it was > 100 µM (inactive). Also, the GI50 with M19-MEL, in the assay with SK-MEL-2, in the assay with IGROV-1, in the assay on RPMI-8226 and with HCC 2998 was > 100 µM (inactive) throughout.
In the case of `CC/C(CC(=O)CCC(=O)Nc1ccc(C)c(C)c1)=N\NC(=O)c1cc2ccccc2cc1O`, the GI50 was 48.5 µM (inactive) in the assay on SNB-78; 37.2 µM (inactive) in the assay with SF-295; 13.9 µM in the assay on HCT-15; 27.5 µM (inactive) in the assay with EKVX; 18 µM (inactive) in the assay on SR; 20.7 µM (inactive) with SK-MEL-28. Besides, the GI50 in the assay with KM12 was 38.4 µM (inactive); in the assay on LXFL 529, 21.9 µM (inactive); in the assay on KM-20L2, > 10 µM (inactive); in the assay with OVCAR-4 it was 18.4 µM (inactive); with M19-MEL it was 28.8 µM (inactive); in the assay on NCI-H460 it was 23.6 µM (inactive). The GI50 was 31 µM (inactive) in the assay on SK-MEL-2, 19 µM (inactive) in the assay with IGROV-1, 45.2 µM (inactive) in the assay with UACC-257 and 18.4 µM (inactive) in the assay on HCC 2998.
In the case of `COc1ccc(NC(=O)/C(=C/c2ccc(N(CCC#N)CCC#N)cc2)NC(=O)c2cc([N+](=O)[O-])ccc2Cl)cc1`, the GI50 was > 100 µM (inactive) in the assay on SNB-78; 19.6 µM (inactive) in the assay on SF-295; 4.62 µM in the assay with HCT-15; 52.1 µM (inactive) in the assay with EKVX; 74.1 µM (inactive) in the assay on SR; 18.9 µM (inactive) with SF-539. The GI50 in the assay on A549 was 15.5 µM (inactive); in the assay with SK-MEL-28, 53.5 µM (inactive); in the assay on KM12 it was 68.2 µM (inactive); in the assay with LXFL 529, 8.89 µM (inactive); with KM-20L2 it was 36.2 µM (inactive); in the assay on OVCAR-4, > 100 µM (inactive). Besides, the GI50 in the assay on M19-MEL is 56.4 µM (inactive); in the assay with SK-MEL-2, 56.1 µM (inactive); in the assay on IGROV-1, 65.9 µM (inactive); in the assay with RPMI-8226, > 100 µM (inactive); in the assay on HCC 2998, 45.8 µM (inactive).
For `COC(=N)C(C)C`, the GI50 in the assay on SNB-78 is > 100 µM (inactive); in the assay on SF-295 it was > 100 µM (inactive); in the assay on HCT-15, above 100 µM; in the assay with SR, > 100 µM (inactive); in the assay on SF-539, > 100 µM (inactive); in the assay on A549, > 100 µM (inactive). The GI50 in the assay with SK-MEL-28, in the assay on KM12, in the assay with LXFL 529, with KM-20L2, in the assay with OVCAR-4 and with M19-MEL was > 100 µM (inactive) throughout. The GI50 with NCI-H460, in the assay with IGROV-1, with UACC-257, in the assay with RPMI-8226 and in the assay on HCC 2998 was > 100 µM (inactive) throughout.
Take `NC(CSC(=O)c1ccccc1)C(=O)O` (centres undefined): the GI50 in the assay with SF-295 is > 100 µM (inactive); in the assay on HCT-15 it was above 100 µM; in the assay with EKVX, > 100 µM (inactive); with SR, > 100 µM (inactive); in the assay with SF-539, > 100 µM (inactive); in the assay on A549, > 100 µM (inactive). Besides, the GI50 in the assay on SK-MEL-28, with KM12, with OVCAR-4, in the assay with NCI-H460, with SK-MEL-2 and in the assay with A498 was > 100 µM (inactive) throughout. The GI50 in the assay with IGROV-1, in the assay with UACC-257 and in the assay on RPMI-8226 was > 100 µM (inactive) throughout.
On to `CC#CC#C/C=C1\C=CC2(OC=CC2OC(C)=O)O1` (centres undefined), for which the GI50 in the assay on SNB-78 was 10.4 µM (inactive); with SF-295 it was 47.8 µM (inactive) and 34.3 µM (inactive); in the assay with EKVX, 29.9 µM (inactive) and > 40 µM (inactive); in the assay with SR it was 17.6 µM (inactive) and 15.3 µM (inactive); in the assay with SF-539 it was 25.5 µM (inactive) and 20.7 µM (inactive); in the assay with A549, 35.2 µM (inactive) and 32.7 µM (inactive). Also, the GI50 with KM12 was 21.7 µM (inactive) and 21.8 µM (inactive); in the assay with LXFL 529, 16.3 µM (inactive); with KM-20L2, 3.51 µM (inactive); in the assay with NCI-H460, 32.3 µM (inactive) and 21.7 µM (inactive); in the assay on A498 it was 47.6 µM (inactive) and 80.9 µM (inactive); in the assay on IGROV-1 it was > 42.9 µM (inactive) and 42 µM (inactive). Besides, the GI50 was 23.2 µM (inactive) in the assay with RPMI-8226; 22 µM (inactive) and 28 µM (inactive) in the assay with HCC 2998.
Consider `O=C1C=C2SC3C[C@@]24CC1(O)[N+]1=c2c4c(c(O)c4c2=C(C=N4)CC1)N3`, for which the GI50 is 1.61 µM (inactive) in the assay with SNB-78; 1.58 µM (inactive) in the assay with SF-295; 1.64 µM in the assay on HCT-15; 4.13 µM (inactive) in the assay on EKVX; 1.51 µM (inactive) with SF-539; 2 µM (inactive) in the assay with A549. Besides, the GI50 in the assay with SK-MEL-28 was 1.64 µM (inactive); in the assay on KM12, 1.53 µM (inactive); with KM-20L2, 0.313 µM (active); in the assay on OVCAR-4 it was 1.26 µM (inactive); with M19-MEL, 0.285 µM (active); in the assay on NCI-H460, 2.07 µM (inactive). Further, the GI50 in the assay with SK-MEL-2 is 1.44 µM (inactive); in the assay with A498, 1.88 µM (inactive); in the assay with IGROV-1, 1.57 µM (inactive); in the assay with UACC-257, 1.16 µM (inactive); with RPMI-8226, 0.457 µM (active).
For the molecule `COc1ccc(-c2cc(O)c3cc(C)cnc3n2)cc1`, the GI50 was 3.23 µM in the assay with HCT-15; 37 µM (inactive) in the assay with EKVX; 6.41 µM (inactive) in the assay on SF-539; 8.65 µM (inactive) with A549; 28.6 µM (inactive) in the assay on SK-MEL-28; 3.56 µM (inactive) in the assay with KM12. The GI50 in the assay with OVCAR-4 was 33.9 µM (inactive); in the assay on SK-MEL-2, 3.5 µM (inactive); with A498 it was 7.29 µM (inactive); in the assay on IGROV-1, 4.12 µM (inactive); in the assay on UACC-257, 5.64 µM (inactive); in the assay on RPMI-8226, 3.73 µM (inactive). The GI50 in the assay on HCC 2998 is 14.5 µM (inactive).
